Several values for one entry are separate records, joined by “and”; a condition that tells them apart may be missing. Equal entries are not always repeated.
What was measured:
[1] = system: Jurkat, SKOV-3 and MESO-1 cells; assay: Cytotoxicity assay, statements for all tested cell lines together; type: cell-based; conditions: Jurkat, SKOV-3 and MESO-1 cells, 72 h
Procedure, shortened: (§1)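 Incubate 4 h at 37 °C, 5% CO2. Add 2-fold compound dilutions, 0.5% DMSO. After 72 h, read CellTiter-Glo luminescence.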

[2] = Cytotoxicity assay (CellTiter-Glo, 72 h), Jurkat; type: cell-based; conditions: human, Jurkat cells (T lymphoma), raw data (replicates)
Procedure, shortened: as §1

T lymphoma Jurkat cells = assay: Cytotoxicity assay (CellTiter-Glo, 72 h), Jurkat; type: cell-based; conditions: raw data (replicates)
Procedure, shortened: as §1

[3] = Cytotoxicity assay (CellTiter-Glo, 72 h), SKOV-3; type: cell-based, human; conditions: human, raw replicate data, read-out: SKOV3 viability (%)
Procedure, shortened: as §1

[4] = system: human ovarian adenocarcinoma SKOV-3 cells; assay: Cytotoxicity assay (CellTiter-Glo, 72 h), SKOV-3; type: cell-based; conditions: raw replicate data
Procedure, shortened: as §1

[5] = Cytotoxicity assay (CellTiter-Glo, 72 h), MESO-1; type: cell-based; conditions: human, MESO-1 malignant pleural mesothelioma cells, raw replicate data, read-out: MESO1 viability (%)
Procedure, shortened: as §1

[6] = system: malignant pleural mesothelioma MESO-1 cells; assay: Cytotoxicity assay (CellTiter-Glo, 72 h), MESO-1; type: cell-based; conditions: raw replicate data
Procedure, shortened: as §1

Structure (SMILES): CO[C@H]1C[C@@H]2CC[C@@H](C)[C@@](O)(O2)C(=O)C(=O)N2CCCC[C@H]2C(=O)O[C@H]([C@H](C)C[C@@H]2CC[C@@H](O)[C@H](OC)C2)CC(=O)[C@H](C)/C=C(\C)[C@@H](O)CC[C@H](C)/C=C/C=C/C=C/1C [Compound 7]
- Effect on cell viability, in words [1]: slightly suppressed the cell viabilities
- viability at 72 h, 9.53674e-05 uM ([2]; conc 9.53674e-5 uM): 100%
- viability at 72 h, 0.000190735 uM ([2]; conc 0.000190735 uM): 95.1%
- viability at 72 h, 0.00038147 uM ([2]; conc 0.00038147 uM): 102%
- viability at 72 h, 0.000762939 uM ([2]; conc 0.000762939 uM): 100%
- viability at 72 h, 0.00152588 uM ([2]; conc 0.00152588 uM): 105%
- viability at 72 h, 0.00305176 uM ([2]; conc 0.00305176 uM): 93.5%
- viability at 72 h, 0.00610352 uM ([2]; conc 0.00610352 uM): 96.7%
- viability at 72 h, 0.012207 uM ([2]; conc 0.012207 uM): 90.6%
- viability at 72 h, 0.0244141 uM ([2]; conc 0.0244141 uM): 98.9%
- viability at 72 h, 0.0488281 uM ([2]; conc 0.0488281 uM): 87%
- viability at 72 h, 0.0976562 uM ([2]; conc 0.0976562 uM): 67%
- viability at 72 h, 0.195312 uM ([2]; conc 0.195312 uM): 46.3%
- viability at 72 h, 0.390625 uM ([2]; conc 0.390625 uM): 36%
- viability at 72 h, 0.78125 uM ([2]; conc 0.78125 uM): 31%
- viability at 72 h, 1.5625 uM ([2]; conc 1.5625 uM): 26.7%
- viability at 72 h, 3.125 uM ([2]; conc 3.125 uM): 24.2%
- viability at 72 h, 6.25 uM ([2]; conc 6.25 uM): 24.1%
- viability at 72 h, 12.5 uM ([2]; conc 12.5 uM): 10.9%
- viability at 72 h, 25 uM ([2]; conc 25 uM): 0.741%
- viability at 72 h, 50 uM ([2]; conc 50 uM): 0.258%
- Jurkat viability (%) (T lymphoma Jurkat cells; conc 9.53674e-5 uM): 101.4% and 96.8%
- Jurkat viability (%) (T lymphoma Jurkat cells; conc 0.000190735 uM): 92.3% and 102.8%
- Jurkat viability (%) (T lymphoma Jurkat cells; conc 0.00038147 uM): 98.3% and 99.4%
- Jurkat viability (%) (T lymphoma Jurkat cells; conc 0.000762939 uM): 96.8% and 109.7%
- Jurkat viability (%) (T lymphoma Jurkat cells; conc 0.00152588 uM): 108.1% and 104.4%
- Jurkat viability (%) (T lymphoma Jurkat cells; conc 0.00305176 uM): 100.3% and 100.8%
- Jurkat viability (%) (T lymphoma Jurkat cells; conc 0.00610352 uM): 94.5% and 97.8%
- Jurkat viability (%) (T lymphoma Jurkat cells; conc 0.012207 uM): 91.0% and 94.3%
- Jurkat viability (%) (T lymphoma Jurkat cells; conc 0.0244141 uM): 98.4% and 90.4%
- Jurkat viability (%) (T lymphoma Jurkat cells; conc 0.0488281 uM): 79.8% and 78.8%
- Jurkat viability (%) (T lymphoma Jurkat cells; conc 0.0976562 uM): 64.4% and 67.9%
- Jurkat viability (%) (T lymphoma Jurkat cells; conc 0.195312 uM): 41.4% and 44.6%
- Jurkat viability (%) (T lymphoma Jurkat cells; conc 0.390625 uM): 37.3% and 37.7%
- Jurkat viability (%) (T lymphoma Jurkat cells; conc 0.78125 uM): 29.3% and 29.8%
- Jurkat viability (%) (T lymphoma Jurkat cells; conc 1.5625 uM): 28.3%
- Jurkat viability (%) (T lymphoma Jurkat cells; conc 3.125 uM): 25.8% and 24.4%
- Jurkat viability (%) (T lymphoma Jurkat cells; conc 6.25 uM): 23.0% and 23.1%
- Jurkat viability (%) (T lymphoma Jurkat cells; conc 12.5 uM): 10.5% and 12.1%
- Jurkat viability (%) (T lymphoma Jurkat cells; conc 25 uM): 0.565% and 1.0%
- Jurkat viability (%) (T lymphoma Jurkat cells; conc 50 uM): 0.186% and 0.257%
- viability at 72 h, 9.53674e-05 uM ([3]; SKOV-3 cells (ovarian adenocarcinoma), conc 9.53674e-5 uM): 101%
- viability at 72 h, 0.000190735 uM ([3]; SKOV-3 cells (ovarian adenocarcinoma), conc 0.000190735 uM): 101%
- viability at 72 h, 0.00038147 uM ([3]; SKOV-3 cells (ovarian adenocarcinoma), conc 0.00038147 uM): 98.2%
- viability at 72 h, 0.000762939 uM ([3]; SKOV-3 cells (ovarian adenocarcinoma), conc 0.000762939 uM): 98.7%
- viability at 72 h, 0.00152588 uM ([3]; SKOV-3 cells (ovarian adenocarcinoma), conc 0.00152588 uM): 101%
- viability at 72 h, 0.00305176 uM ([3]; SKOV-3 cells (ovarian adenocarcinoma), conc 0.00305176 uM): 94.8%
- viability at 72 h, 0.00610352 uM ([3]; SKOV-3 cells (ovarian adenocarcinoma), conc 0.00610352 uM): 98.4%
- viability at 72 h, 0.012207 uM ([3]; SKOV-3 cells (ovarian adenocarcinoma), conc 0.012207 uM): 96.9%
- viability at 72 h, 0.0244141 uM ([3]; SKOV-3 cells (ovarian adenocarcinoma), conc 0.0244141 uM): 94.4%
- viability at 72 h, 0.0488281 uM ([3]; SKOV-3 cells (ovarian adenocarcinoma), conc 0.0488281 uM): 92.3%
- viability at 72 h, 0.0976562 uM ([3]; SKOV-3 cells (ovarian adenocarcinoma), conc 0.0976562 uM): 88.5%
- viability at 72 h, 0.195312 uM ([3]; SKOV-3 cells (ovarian adenocarcinoma), conc 0.195312 uM): 64.9%
- viability at 72 h, 0.390625 uM ([3]; SKOV-3 cells (ovarian adenocarcinoma), conc 0.390625 uM): 75%
- viability at 72 h, 12.5 uM ([3]; SKOV-3 cells (ovarian adenocarcinoma), conc 12.5 uM): 56.1%
- viability at 72 h, 25 uM ([3]; SKOV-3 cells (ovarian adenocarcinoma), conc 25 uM): 30.8%
- viability at 72 h, 50 uM ([3]; SKOV-3 cells (ovarian adenocarcinoma), conc 50 uM): 6.6%
- viability at 72 h, 0.78125 uM ([3]; SKOV-3 ovarian adenocarcinoma cells, conc 0.78125 uM): 59.1%
- viability at 72 h, 1.5625 uM ([3]; SKOV-3 ovarian adenocarcinoma cells, conc 1.5625 uM): 62%
- viability at 72 h, 3.125 uM ([3]; SKOV-3 ovarian adenocarcinoma cells, conc 3.125 uM): 59.9%
- viability at 72 h, 6.25 uM ([3]; SKOV-3 ovarian adenocarcinoma cells, conc 6.25 uM): 61.9%
- SKOV3 viability (%) ([4]; conc 9.53674e-5 uM): 108.9% and 101.6%
- SKOV3 viability (%) ([4]; conc 0.000190735 uM): 101.5% and 97.4%
- SKOV3 viability (%) ([4]; conc 0.00038147 uM): 103.2% and 103.5%
- SKOV3 viability (%) ([4]; conc 0.000762939 uM): 102.5%
- SKOV3 viability (%) ([4]; conc 0.00152588 uM): 105.1% and 100.3%
- SKOV3 viability (%) ([4]; conc 0.00305176 uM): 94.9% and 97.9%
- SKOV3 viability (%) ([4]; conc 0.00610352 uM): 104.9% and 101.4%
- SKOV3 viability (%) ([4]; conc 0.012207 uM): 92.0% and 94.0%
- SKOV3 viability (%) ([4]; conc 0.0244141 uM): 99.4% and 102.3%
- SKOV3 viability (%) ([4]; conc 0.0488281 uM): 100.8% and 88.2%
- SKOV3 viability (%) ([4]; conc 0.0976562 uM): 88.7% and 90.6%
- SKOV3 viability (%) ([4]; conc 0.195312 uM): 66.8% and 68.9%
- SKOV3 viability (%) ([4]; conc 0.390625 uM): 68.2% and 69.5%
- SKOV3 viability (%) ([4]; conc 0.78125 uM): 60.2% and 57.4%
- SKOV3 viability (%) ([4]; conc 1.5625 uM): 64.2% and 69.2%
- SKOV3 viability (%) ([4]; conc 3.125 uM): 60.4% and 56.6%
- SKOV3 viability (%) ([4]; conc 6.25 uM): 60.8% and 65.6%
- SKOV3 viability (%) ([4]; conc 12.5 uM): 53.3% and 53.4%
- SKOV3 viability (%) ([4]; conc 25 uM): 31.4% and 36.3%
- SKOV3 viability (%) ([4]; conc 50 uM): 5.9% and 7.4%
- viability at 72 h, 9.53674e-05 uM ([5]; conc 9.53674e-5 uM): 96.8%
- viability at 72 h, 0.000190735 uM ([5]; conc 0.000190735 uM): 92.7%
- viability at 72 h, 0.00038147 uM ([5]; conc 0.00038147 uM): 98.8%
- viability at 72 h, 0.000762939 uM ([5]; conc 0.000762939 uM): 94.4%
- viability at 72 h, 0.00152588 uM ([5]; conc 0.00152588 uM): 97.9%
- viability at 72 h, 0.00305176 uM ([5]; conc 0.00305176 uM): 90.7%
- viability at 72 h, 0.00610352 uM ([5]; conc 0.00610352 uM): 100%
- viability at 72 h, 0.012207 uM ([5]; conc 0.012207 uM): 86%
- viability at 72 h, 0.0244141 uM ([5]; conc 0.0244141 uM): 90.4%
- viability at 72 h, 0.0488281 uM ([5]; conc 0.0488281 uM): 80.8%
- viability at 72 h, 0.0976562 uM ([5]; conc 0.0976562 uM): 78.6%
- viability at 72 h, 0.195312 uM ([5]; conc 0.195312 uM): 68.6%
- viability at 72 h, 0.390625 uM ([5]; conc 0.390625 uM): 71.6%
- viability at 72 h, 0.78125 uM ([5]; conc 0.78125 uM): 67.7%
- viability at 72 h, 1.5625 uM ([5]; conc 1.5625 uM): 70.1%
- viability at 72 h, 3.125 uM ([5]; conc 3.125 uM): 60.8%
- viability at 72 h, 6.25 uM ([5]; conc 6.25 uM): 67.3%
- viability at 72 h, 12.5 uM ([5]; conc 12.5 uM): 66.3%
- viability at 72 h, 25 uM ([5]; conc 25 uM): 64.4%
- viability at 72 h, 50 uM ([5]; conc 50 uM): 23.2%
- MESO1 viability (%) ([6]; conc 9.53674e-5 uM): 102.2% and 99.0%
- MESO1 viability (%) ([6]; conc 0.000190735 uM): 96.1%
- MESO1 viability (%) ([6]; conc 0.00038147 uM): 98.4% and 104.2%
- MESO1 viability (%) ([6]; conc 0.000762939 uM): 97.5%
- MESO1 viability (%) ([6]; conc 0.00152588 uM): 94.3% and 98.4%
- MESO1 viability (%) ([6]; conc 0.00305176 uM): 93.1% and 92.8%
- MESO1 viability (%) ([6]; conc 0.00610352 uM): 98.2%
- MESO1 viability (%) ([6]; conc 0.012207 uM): 92.2% and 89.5%
- MESO1 viability (%) ([6]; conc 0.0244141 uM): 87.8%
- MESO1 viability (%) ([6]; conc 0.0488281 uM): 86.4% and 84.2%
- MESO1 viability (%) ([6]; conc 0.0976562 uM): 76.6% and 76.8%
- MESO1 viability (%) ([6]; conc 0.195312 uM): 70.4% and 63.5%
- MESO1 viability (%) ([6]; conc 0.390625 uM): 69.2% and 71.3%
- MESO1 viability (%) ([6]; conc 0.78125 uM): 64.7% and 62.9%
- MESO1 viability (%) ([6]; conc 1.5625 uM): 70.0% and 72.7%
- MESO1 viability (%) ([6]; conc 3.125 uM): 62.1% and 64.7%
- MESO1 viability (%) ([6]; conc 6.25 uM): 67.5% and 72.2%
- MESO1 viability (%) ([6]; conc 12.5 uM): 60.9% and 63.2%
- MESO1 viability (%) ([6]; conc 25 uM): 63.3% and 65.2%
- MESO1 viability (%) ([6]; conc 50 uM): 30.2% and 20.1%
